{
  "source": "patent US20180289008A1",
  "about": "“METHODS FOR WILDFIRE CONTROL, INVASIVE PLANT CONTROL, AND RESIDUAL CONTROL OF INVASIVE PLANTS” (priority 2017, published 2018)",
  "key": {"[1]": {"system": "Common mullein (Verbascum thapsus)", "assay": "Greenhouse pre-emergence dose-response bioassay (GR50)", "format": "in vivo", "text": "(§1) A greenhouse experiment was designed to determine if the extended control of Dalmatian toadflax and downy brome provided by indaziflam in the field was due to increased residual seedling control. This experiment was designed to compare indaziflam's pre-emergence efficacy to the currently recommended herbicides (aminocyclopyrachlor and aminopyralid) for annual, biennial, and perennial weed control in non-crop areas. […] This allows for direct comparisons between herbicides on an active ingredient basis for aminopyralid, aminocyclopyrachlor, and indaziflam.\n(§2) For the greenhouse bioassay, seeds were planted at a constant depth of 0.5 cm in 13- by 9- by 6-cm plastic containers, filled with an Otero sandy clay loam field soil (Coarse-loamy, mixed (calcareous), mesic Aridic Ustorthents) with 3.9% OM and pH 7.7. Seeding densities were adjusted based on germinability to reach a target density of 40 plants/pot. Plants were maintained in a greenhouse with a 25/20° C. day/night temperature with natural light supplemented with high-intensity discharge lamps to give a 15-h photoperiod. Plants were sub-irrigated as needed and misted overhead daily to reduce soil crusting.\n(§3) The greenhouse experiment was a completely randomized design with a factorial of seven herbicide rates and a non-treated control with three replicates per treatment. The experiments were conducted at two different times. A preliminary greenhouse study was conducted for each herbicide and species to determine a range of doses that would best fit a logistic regression. It is not unusual for both pre-emergence and post-emergence herbicides to provide control at lower than labeled rates, e.g., 0.5-560 g ai ha^−1 (aminocyclopyrachlor), 0.9-224 g ai ha^−1 (aminopyralid), and 0.05-11.7 g ai ha^−1 (indaziflam) in the greenhouse with ideal environmental conditions, so it was not surprising that herbicide doses for the regression analysis were much lower than recommended field use rates. Herbicides were applied pre-emergence using a Generation III research track sprayer (DeVries Manufacturing, Hollandale, Minn.) equipped with a TeeJet 8002 EVS flat-fan spray nozzle (TeeJet Spraying Systems Co., Wheaton, Ill.) at 187 L·ha-1 at 172 kPa.\n(§4) Plants were harvested at the soil surface approximately 4 to 5 week-after-treatment (WAT) depending on the growth stage of each species. Weights were recorded after samples were dried for 5 days at 60° C. Percent dry weight reduction was calculated relative to the non-treated control plants for each treatment.\n(§5) Data from the greenhouse dose-response experiment were first analyzed using the PROC MIXED method in SAS 9.3 with treatment as a fixed effect and experiment and replicate as random effects (SAS Institute 2010). Based on a non-significant homogeneity of variance (ANOVA) and experiment-by-herbicide rate interaction, results from the repeated experiments were pooled. The treatment effect was significant, therefore, nonlinear regression in Graphpad Prism 7.00 (GraphPad Software, La Jolla Calif. USA) was used to describe the response of the nine weed species to aminocyclopyrachlor, aminopyralid, and indaziflam. The herbicide concentrations resulting in 50% reduction in plant biomass (GR50) compared to the non-treated control were determined for each invasive weed species using four-parameter log-logistic regression. The equation used to regress herbicide concentration with percent reduction in plant dry biomass as compared to the non-treated control was:\n(§6) where C and D represent the lower and upper limits of the dose-response curve, respectively, and b represents the slope of the best-fitting curve through the GR50 value. For curve fitting and GR50 estimation, the model was constrained to a maximum of 100 and minimum of 0. Mean separation of herbicide GR50 values were analyzed by Fisher's Protected LSD test at the 5% level of probability. […]"}, "[2]": {"system": "Common teasel (Dipsacus fullonum)", "assay": "Greenhouse pre-emergence dose-response bioassay (GR50)", "format": "in vivo", "text": "as §1, §2, §3, §4, §5, §6"}, "[3]": {"system": "Curly dock (Rumex crispus)", "assay": "Greenhouse pre-emergence dose-response bioassay (GR50)", "format": "in vivo", "text": "as §1, §2, §3, §4, §5, §6"}, "[4]": {"system": "Dalmatian toadflax (Linaria dalmatica)", "assay": "Greenhouse pre-emergence dose-response bioassay (GR50)", "format": "in vivo", "text": "as §1, §2, §3, §4, §5, §6"}, "[5]": {"system": "Diffuse knapweed (Centaurea diffusa)", "assay": "Greenhouse pre-emergence dose-response bioassay (GR50)", "format": "in vivo", "text": "as §1, §2, §3, §4, §5, §6"}, "[6]": {"system": "Halogeton (Halogeton glomeratus)", "assay": "Greenhouse pre-emergence dose-response bioassay (GR50)", "format": "in vivo", "text": "as §1, §2, §3, §4, §5, §6"}, "[7]": {"system": "Marestail (Conyza Canadensis)", "assay": "Greenhouse pre-emergence dose-response bioassay (GR50)", "format": "in vivo", "text": "as §1, §2, §3, §4, §5, §6"}, "[8]": {"system": "Musk thistle (Carduus nutans)", "assay": "Greenhouse pre-emergence dose-response bioassay (GR50)", "format": "in vivo", "text": "as §1, §2, §3, §4, §5, §6"}, "[9]": {"system": "downy brome (Bromus tectorum)", "assay": "Greenhouse pre-emergence dose-response bioassay (GR50)", "format": "in vivo", "text": "as §1, §2, §3, §4, §5, §6"}, "all nine weed species": {"system": "all nine weed species", "assay": "Greenhouse pre-emergence dose-response bioassay, across all nine weed species", "format": "in vivo", "details": "averaging across all nine weed species", "text": "as §1, with “indaziflam. […]” for “indaziflam.”\nas §4\nData from the greenhouse dose-response experiment were first analyzed using the PROC MIXED method in SAS 9.3 with treatment as a fixed effect and experiment and replicate as random effects (SAS Institute 2010). […] The herbicide concentrations resulting in 50% reduction in plant biomass (GR50) compared to the non-treated control were determined for each invasive weed species using four-parameter log-logistic regression. […]"}, "[10]": {"system": "downy brome, common mullein, Canada thistle, teasel, houndstongue, Scotch thistle, diffuse knapweed, field bindweed", "assay": "Seedling control of invasive weeds versus untreated (FIG. 4A-4D)", "details": "in vivo"}, "[11]": {"details": "pH 7; cited from earlier work"}},
  "note": "“And” between values parts separate entries of the source, which are not always exact repeats. Equal entries are not always repeated. Where two headings read alike, the source gives them in different places.",
  "data": [
    {"smiles": "Cc1ccc2c(c1)[C@H](Nc1nc(N)nc(C(C)F)n1)[C@@H](C)C2", "note": "(mixture of isomers) [Indaziflam, N2-[(1R,2S)-2,3-dihydro-2,6-dimethyl-1H-inden-1-yl]-6-[(1RS)-1-fluoroethyl]-1,3,5-triazine-2,4-diamine]", "values": [
      {"measurement": "GR50 ratio Aminocyclopyrachlor/Indaziflam", "setting": "[1]", "value": 44.57},
      {"measurement": "GR50 ratio Aminopyralid/Indaziflam", "setting": "[1]", "value": "106 and 106.43"},
      {"measurement": "GR50 (herbicide dose resulting in 50% dry biomass reduction)", "setting": "[1]; pre-emergence", "value": 0.07, "unit": "a g ai ha^−1"},
      {"measurement": "GR50 ratio Aminocyclopyrachlor/Indaziflam", "setting": "[2]", "value": 5.18},
      {"measurement": "GR50 ratio Aminopyralid/Indaziflam", "setting": "[2]", "value": 0.56},
      {"measurement": "GR50 (herbicide dose resulting in 50% dry biomass reduction)", "setting": "[2]; pre-emergence", "value": 1.33, "unit": "b g ai ha^−1"},
      {"measurement": "GR50 ratio Aminocyclopyrachlor/Indaziflam", "setting": "[3]", "value": 19.36},
      {"measurement": "GR50 ratio Aminopyralid/Indaziflam", "setting": "[3]", "value": 1.14},
      {"measurement": "GR50 (herbicide dose resulting in 50% dry biomass reduction)", "setting": "[3]; pre-emergence", "value": 1.10, "unit": "a g ai ha^−1"},
      {"measurement": "GR50 ratio Aminocyclopyrachlor/Indaziflam", "setting": "[4]", "value": 19.33},
      {"measurement": "GR50 ratio Aminopyralid/Indaziflam", "setting": "[4]", "value": 246.67},
      {"measurement": "GR50 ratio Aminocyclopyrachlor/Indaziflam", "setting": "[4]; listed as indaziflam", "value": 19},
      {"measurement": "GR50 ratio Aminopyralid/Indaziflam", "setting": "[4]; listed as indaziflam", "value": 247},
      {"measurement": "GR50 (herbicide dose resulting in 50% dry biomass reduction)", "setting": "[4]; pre-emergence", "value": 0.06, "unit": "a g ai ha^−1"},
      {"measurement": "GR50 ratio Aminocyclopyrachlor/Indaziflam", "setting": "[5]", "value": 10.69},
      {"measurement": "GR50 ratio Aminopyralid/Indaziflam", "setting": "[5]", "value": "4 and 4.31"},
      {"measurement": "GR50 (herbicide dose resulting in 50% dry biomass reduction)", "setting": "[5]; pre-emergence", "value": 0.58, "unit": "a g ai ha^−1"},
      {"measurement": "GR50 ratio Aminocyclopyrachlor/Indaziflam", "setting": "[6]", "value": 2.89},
      {"measurement": "GR50 ratio Aminopyralid/Indaziflam", "setting": "[6]", "value": "9 and 8.64"},
      {"measurement": "GR50 (herbicide dose resulting in 50% dry biomass reduction)", "setting": "[6]; pre-emergence", "value": 0.36, "unit": "a g ai ha^−1"},
      {"measurement": "GR50 ratio Aminocyclopyrachlor/Indaziflam", "setting": "[7]", "value": 12.29},
      {"measurement": "GR50 ratio Aminopyralid/Indaziflam", "setting": "[7]", "value": "5 and 4.71"},
      {"measurement": "GR50 (herbicide dose resulting in 50% dry biomass reduction)", "setting": "[7]; pre-emergence", "value": 0.17, "unit": "a g ai ha^−1"},
      {"measurement": "GR50 ratio Aminocyclopyrachlor/Indaziflam", "setting": "[8]", "value": 3.79},
      {"measurement": "GR50 ratio Aminopyralid/Indaziflam", "setting": "[8]", "value": 0.94},
      {"measurement": "GR50 (herbicide dose resulting in 50% dry biomass reduction)", "setting": "[8]; pre-emergence", "value": 0.33, "unit": "a g ai ha^−1"},
      {"measurement": "GR50 ratio Aminocyclopyrachlor/Indaziflam", "setting": "[9]", "value": 144.62},
      {"measurement": "GR50 ratio Aminopyralid/Indaziflam", "setting": "[9]", "value": 98.72},
      {"measurement": "GR50 ratio Aminocyclopyrachlor/Indaziflam", "setting": "[9]; listed as indaziflam", "value": 125},
      {"measurement": "GR50 ratio Aminopyralid/Indaziflam", "setting": "[9]; listed as indaziflam", "value": 99},
      {"measurement": "GR50 (herbicide dose resulting in 50% dry biomass reduction)", "setting": "[9]; pre-emergence", "value": 0.39, "unit": "a g ai ha^−1"},
      {"measurement": "times more active than aminocyclopyrachlor", "setting": "all nine weed species", "value": 29},
      {"measurement": "times more active than aminopyralid", "setting": "all nine weed species", "value": 52},
      {"measurement": "seedling control of invasive weeds compared with the untreated (FIG. 4A-4D)", "setting": "[10]", "value": "improved seedling control of invasive weeds"},
      {"measurement": "Log Kow", "setting": "[11]", "value": 2.8}
    ]}
  ]
}
